The subject of one assay is total number of bacteria. As to the kind of experiment: Microorganism growth inhibition: total number of bacteria on plate count agar. Format: cell-based. Conditions: boiled soup chicken dipped 30 seconds in solution, stored at 25° C. The procedure: (§1) A chicken in instant ginseng chicken soup (product of Harim) was boiled, washed twice with cold water, and then dehydrated for 1 minute. 10 g of boiled instant ginseng chicken soup was dipped in 100 ml of solution for 30 seconds, dehydrated for 30 seconds on a strainer, held in a petri dish, and then stored at 25° C. For counting the total number of bacteria, the number of colonies resulting from culturing for 48 hours at 37° C. using a plate count agar was counted and indicated with colony forming unit (CFU)/ml. For counting the number of colon bacteria, the experiment was conducted in the same way for counting the total number of bacteria using a Chromocult (merck) medium. In this case, distilled water as a control group and (F)rhodinic acid were used.

A further assay deals with colon bacteria. Description: Microorganism growth inhibition: number of colon bacteria on Chromocult medium. Format: cell-based. The note with it: time 24 (hours); stored at 25° C.; ND = Not observed. The procedure:
as §1

SMILES strings stand for the structures.

For the compound `CC(C)=CCCC(C)CC(=O)O` (centres unmarked) [F (rhodinic acid), rhodinic acid], the “Total number of bacteria” value is 6.7 × 10^2 CFU/ml in the assay on total number of bacteria (time 0); 10 × 10^5 CFU/ml in the assay with total number of bacteria (time 18); 8.9 × 10^6 CFU/ml in the assay on total number of bacteria (time 24 (hours)); “up to 10^6 CFU/ml” in the assay on total number of bacteria (time 24 (hours), listed as (F)rhodinic acid). Further, the “Number of colon bacteria” value with colon bacteria is recorded as “no colon bacteria were detected”.

The values above are taken from patent publication US20180325151A1, “METHOD OF PRODUCING INSTANT GINSENG CHICKEN SOUP PRODUCT” (HARIM CORPORATION, priority 2017, published 2018).
